pIC50: −log10 of the molar value. In brackets after ≈: the same amount, converted by molar mass. Read-outs that look alike come from different tables or passages of the source.
How the values were obtained:
N. gonorrhoeae WHO L = test: Liquid broth MIC in Fastidious broth; settings: Neisseria gonorrhoeae
[1] = target: T1, PBP3 from Pseudomonas aeruginosa (PAO1) (Pseudomonas aeruginosa, UniProt G3XD46); test: Bocillin-FL fluorescence polarization competition binding, P. aeruginosa PBP3; settings: Binding affinity to P. aeruginosa PBP3; fluorescence polarization competition binding assay using Bocillin-FL; read-out: P. aeruginosa PBP3 Potency
T1 construct: made in house
Method in brief: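 Purified PBP was preincubated with inhibitor (E. coli PBP3 1.5 μM, 30 min; P. aeruginosa PBP3 0.75 μM, A. baumannii PBP3 0.2 μM and PBP1a 1 μM, 15 min), then Bocillin-FL (0.1 μM; 0.05 μM for PBP1a) added and FP read up to 60 min. EC50 = 50% loss of bound probe.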

P. aeruginosa CDC-0110 = test: microbe, parasite or virus in culture; assay type: cell-based; settings: Pseudomonas aeruginosa, CDC0110, read-out: Minimum inhibitory concentration, P. aeruginosa CDC-0110
N. gonorrhoeae FA1090 = test: Liquid broth MIC in Fastidious broth; settings: Neisseria gonorrhoeae
[2] = test system: B. humptydooensis ATCC BAA-2767; test: microbe, parasite or virus in culture; assay type: cell-based; settings: Burkholderia humptydooensis, ATCCBAA2767, read-out: Minimum inhibitory concentration (MIC), B. humptydooensis ATCC BAA-2767
N. gonorrhoeae WHO G = test: Liquid broth MIC in Fastidious broth; settings: Neisseria gonorrhoeae
A. baumannii CDC-0045 = test: microbe, parasite or virus in culture; assay type: cell-based; settings: Acinetobacter baumannii, CDC0045, read-out: MIC, A. baumannii CDC-0045
P. aeruginosa ATCC 27853 = test: microbe, parasite or virus in culture; assay type: cell-based; settings: Pseudomonas aeruginosa, ATCC27853, read-out: Minimum inhibitory concentration, P. aeruginosa ATCC 27853
N. gonorrhoeae WHO Q = test: Liquid broth MIC in Fastidious broth; settings: Neisseria gonorrhoeae
A. baumannii CDC-0036 = test: microbe, parasite or virus in culture; assay type: cell-based; settings: Acinetobacter baumannii, CDC0036, read-out: MIC, A. baumannii CDC-0036
[3] = test system: B. thailandensis ATCC 700388; test: microbe, parasite or virus in culture; assay type: cell-based; settings: Burkholderia thailandensis, ATCC700388, read-out: Minimum inhibitory concentration (MIC), B. thailandensis ATCC 700388
P. aeruginosa CDC-0095 = test: microbe, parasite or virus in culture; assay type: cell-based; settings: Pseudomonas aeruginosa, CDC0095, read-out: Minimum inhibitory concentration, P. aeruginosa CDC-0095
[4] = read-out: Minimum Inhibitory Concentration, WHO L
[5] = FA1090, read-out: Minimum Inhibitory Concentration, FA 1090
[6] = read-out: Minimum Inhibitory Concentration, WHO G
[7] = read-out: Minimum Inhibitory Concentration, WHO Q
[8] = read-out: Minimum Inhibitory Concentration (MIC), N. gonorrhoeae WHO L
[9] = FA1090, read-out: Minimum Inhibitory Concentration (MIC), N. gonorrhoeae FA 1090
[10] = read-out: Minimum Inhibitory Concentration (MIC), N. gonorrhoeae WHO G
[11] = read-out: Minimum Inhibitory Concentration (MIC), N. gonorrhoeae WHO Q

T1 sequence (G3XD46 whole entry): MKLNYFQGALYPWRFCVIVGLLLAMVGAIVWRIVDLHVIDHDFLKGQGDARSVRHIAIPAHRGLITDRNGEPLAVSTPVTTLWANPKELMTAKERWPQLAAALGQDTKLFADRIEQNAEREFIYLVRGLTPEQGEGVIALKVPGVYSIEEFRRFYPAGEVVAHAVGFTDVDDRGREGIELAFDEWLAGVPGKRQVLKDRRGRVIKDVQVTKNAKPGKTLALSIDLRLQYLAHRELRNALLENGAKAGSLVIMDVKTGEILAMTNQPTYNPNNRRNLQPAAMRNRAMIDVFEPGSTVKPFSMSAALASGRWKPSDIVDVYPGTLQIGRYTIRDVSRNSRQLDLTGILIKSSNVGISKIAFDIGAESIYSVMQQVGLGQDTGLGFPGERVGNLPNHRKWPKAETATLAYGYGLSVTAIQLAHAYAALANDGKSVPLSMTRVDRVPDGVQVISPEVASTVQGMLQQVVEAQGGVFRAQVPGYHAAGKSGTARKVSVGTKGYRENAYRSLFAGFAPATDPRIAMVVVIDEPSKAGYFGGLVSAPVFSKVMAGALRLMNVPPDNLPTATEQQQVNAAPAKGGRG

Row | SMILES | MIC (N. gonorrhoeae WHO L; [4]) | pIC50 [1] | MIC (P. aeruginosa CDC-0110) | MIC (N. gonorrhoeae FA1090; [5]) | MIC [2] | MIC (N. gonorrhoeae WHO G; [6]) | MIC (A. baumannii CDC-0045) | MIC (P. aeruginosa ATCC 27853) | MIC (N. gonorrhoeae WHO Q; [7]) | MIC (A. baumannii CDC-0036) | MIC [3] | MIC (P. aeruginosa CDC-0095) | MIC (N. gonorrhoeae WHO L; [8]) | MIC (N. gonorrhoeae FA1090; [9]) | MIC (N. gonorrhoeae WHO G; [10]) | MIC (N. gonorrhoeae WHO Q; [11])
1 | O=C(NCCCN1CCN(C(=O)N[C@H](C(=O)N[C@H]2Cc3ccc(F)c(C(=O)O)c3OB2O)c2cc(F)c(O)c(O)c2Cl)C1=O)c1cccc(O)c1 [Example 254, (R)-3-((S)-2-(2-chloro-5-fluoro-3,4-dihydroxyphenyl)-2-(3-(3-(3-hydroxybenzamido)propyl)-2-oxoimidazolidine-1-carboxamido)acetamido)-7-fluoro-2-hydroxy-3,4-dihydro-2H-benzo[e][1,2]oxaborinine-8-carboxylic acid] | > 64 µg/mL | 3.60 to 4.30 | > 128 µg/mL | > 64 µg/mL | > 128 µg/mL | > 64 µg/mL | > 128 µg/mL | > 128 µg/mL | > 64 µg/mL | > 128 µg/mL | > 128 µg/mL | > 128 µg/mL |  |  |  | 
2 | O=C(CN1CCN(C(=O)NC(C(=O)N[C@H]2Cc3ccc(F)c(C(=O)O)c3OB2O)c2cc(F)c(O)c(O)c2Cl)C(=O)C1=O)NCc1cccc(O)c1 (stereo partly drawn) [Example 237, (3R)-3-(2-(2-chloro-5-fluoro-3,4-dihydroxyphenyl)-2-(4-(2-((3-hydroxybenzyl)amino)-2-oxoethyl)-2,3-dioxopiperazine-1-carboxamido)acetamido)-7-fluoro-2-hydroxy-3,4-dihydro-2H-benzo[e][1,2]oxaborinine-8-carboxylic acid] |  | > 5.00 | < 1 µg/mL |  | 2 to 4 µg/mL (≈ 2.68 to 5.36 µM) |  | 8 to 16 µg/mL (≈ 10.7 to 21.5 µM) | 2 to 4 µg/mL (≈ 2.68 to 5.36 µM) |  | 8 to 16 µg/mL (≈ 10.7 to 21.5 µM) | 8 to 16 µg/mL (≈ 10.7 to 21.5 µM) | 2 to 4 µg/mL (≈ 2.68 to 5.36 µM) | > 64 µg/mL | 1 to 2 µg/mL (≈ 1.34 to 2.68 µM) | 4 to 8 µg/mL (≈ 5.36 to 10.7 µM) | > 64 µg/mL
3 | O=C(NCCCN1CCN(C(=O)NC(C(=O)N[C@H]2Cc3ccc(F)c(C(=O)O)c3OB2O)c2cc(F)c(O)c(O)c2Cl)C(=O)C1=O)Nc1ccc(O)cc1 (stereo partly drawn) [Example 227, (3R)-3-(2-(2-chloro-5-fluoro-3,4-dihydroxyphenyl)-2-(4-(3-(3-(4-hydroxyphenyl)ureido)propyl)-2,3-dioxopiperazine-1-carboxamido)acetamido)-7-fluoro-2-hydroxy-3,4-dihydro-2H-benzo[e][1,2]oxaborinine-8-carboxylic acid] |  | > 5.00 | < 1 µg/mL |  | < 1 µg/mL |  | < 1 µg/mL | < 1 µg/mL |  | 2 to 4 µg/mL (≈ 2.58 to 5.16 µM) | < 1 µg/mL | < 1 µg/mL | > 64 µg/mL | 1 to 2 µg/mL (≈ 1.29 to 2.58 µM) | 4 to 8 µg/mL (≈ 5.16 to 10.3 µM) | > 64 µg/mL
4 | O=C(NCCN1CCN(C(=O)NC(C(=O)N[C@H]2Cc3ccc(F)c(C(=O)O)c3OB2O)c2cc(F)c(O)c(O)c2Cl)C1=O)Nc1cccnc1 (stereo partly drawn) [Example 251, (3R)-3-(2-(2-chloro-5-fluoro-3,4-dihydroxyphenyl)-2-(2-oxo-3-(2-(3-(pyridin-3-yl)ureido)ethyl)imidazolidine-1-carboxamido)acetamido)-7-fluoro-2-hydroxy-3,4-dihydro-2H-benzo[e][1,2]oxaborinine-8-carboxylic acid] | > 64 µg/mL | > 5.00 | < 1 µg/mL | 4 to 8 µg/mL (≈ 5.57 to 11.1 µM) | < 1 µg/mL | 16 to 32 µg/mL (≈ 22.3 to 44.6 µM) | < 1 µg/mL | < 1 µg/mL | > 64 µg/mL | 2 to 4 µg/mL (≈ 2.79 to 5.57 µM) | < 1 µg/mL | 8 to 16 µg/mL (≈ 11.1 to 22.3 µM) |  |  |  | 
5 | O=C(NCCCS(=O)(=O)N1CCN(C(=O)NC(C(=O)N[C@H]2Cc3ccc(F)c(C(=O)O)c3OB2O)c2cc(F)c(O)c(O)c2Cl)C1=O)Nc1ccc(O)cc1 (stereo partly drawn) [Example 276, (3R)-3-(2-(2-chloro-5-fluoro-3,4-dihydroxyphenyl)-2-(3-((3-(3-(4-hydroxyphenyl)ureido)propyl)sulfonyl)-2-oxoimidazolidine-1-carboxamido)acetamido)-7-fluoro-2-hydroxy-3,4-dihydro-2H-benzo[e][1,2]oxaborinine-8-carboxylic acid] | > 64 µg/mL | > 5.00 | 2 to 4 µg/mL (≈ 2.47 to 4.93 µM) | 1 to 2 µg/mL (≈ 1.23 to 2.47 µM) | 32 to 64 µg/mL (≈ 39.5 to 78.9 µM) | 16 to 32 µg/mL (≈ 19.7 to 39.5 µM) | 2 to 4 µg/mL (≈ 2.47 to 4.93 µM) | 2 to 4 µg/mL (≈ 2.47 to 4.93 µM) | 16 to 32 µg/mL (≈ 19.7 to 39.5 µM) | 2 to 4 µg/mL (≈ 2.47 to 4.93 µM) | > 128 µg/mL | 8 to 16 µg/mL (≈ 9.87 to 19.7 µM) |  |  |  | 
6 | O=C(NCCCN1CCN(C(=O)NC(C(=O)N[C@H]2Cc3ccc(F)c(C(=O)O)c3OB2O)c2cc(F)c(O)c(O)c2Cl)C(=O)C1=O)c1cccc(O)c1 (stereo partly drawn) [Example 204, (3R)-3-(2-(2-chloro-5-fluoro-3,4-dihydroxyphenyl)-2-(4-(3-(3-hydroxybenzamido)propyl)-2,3-dioxopiperazine-1-carboxamido)acetamido)-7-fluoro-2-hydroxy-3,4-dihydro-2H-benzo[e][1,2]oxaborinine-8-carboxylic acid] |  | > 5.00 | < 1 µg/mL |  | < 1 µg/mL |  | < 1 µg/mL | < 1 µg/mL |  | 2 to 4 µg/mL (≈ 2.63 to 5.26 µM) | 2 to 4 µg/mL (≈ 2.63 to 5.26 µM) | < 1 µg/mL | > 64 µg/mL | 1 to 2 µg/mL (≈ 1.32 to 2.63 µM) | 4 to 8 µg/mL (≈ 5.26 to 10.5 µM) | > 64 µg/mL
7 | O=C(O)c1c(F)ccc2c1OB(O)[C@@H](NC(=O)C(NC(=O)N1CCN(S(=O)(=O)CCNC(=O)[C@@H]3CCCN3)C1=O)c1cc(F)c(O)c(O)c1Cl)C2 (stereo partly drawn) [Example 265, (3R)-3-(2-(2-chloro-5-fluoro-3,4-dihydroxyphenyl)-2-(2-oxo-3-((2-((S)-pyrrolidine-2-carboxamido)ethyl)sulfonyl)imidazolidine-1-carboxamido)acetamido)-7-fluoro-2-hydroxy-3,4-dihydro-2H-benzo[e][1,2]oxaborinine-8-carboxylic acid] | > 64 µg/mL | > 5.00 | < 1 µg/mL | 4 to 8 µg/mL (≈ 5.27 to 10.5 µM) | < 1 µg/mL | 16 to 32 µg/mL (≈ 21.1 to 42.2 µM) | < 1 µg/mL | 2 to 4 µg/mL (≈ 2.64 to 5.27 µM) | 16 to 32 µg/mL (≈ 21.1 to 42.2 µM) | 2 to 4 µg/mL (≈ 2.64 to 5.27 µM) | < 1 µg/mL | 2 to 4 µg/mL (≈ 2.64 to 5.27 µM) |  |  |  | 
8 | O=C(NCCN1CCN(C(=O)NC(C(=O)N[C@H]2Cc3ccc(F)c(C(=O)O)c3OB2O)c2cc(F)c(O)c(O)c2Cl)C(=O)C1=O)c1ccc(O)cc1 (stereo partly drawn) [Example 214, (3R)-3-(2-(2-chloro-5-fluoro-3,4-dihydroxyphenyl)-2-(4-(2-(4-hydroxybenzamido)ethyl)-2,3-dioxopiperazine-1-carboxamido)acetamido)-7-fluoro-2-hydroxy-3,4-dihydro-2H-benzo[e][1,2]oxaborinine-8-carboxylic acid] |  | > 5.00 | < 1 µg/mL |  | < 1 µg/mL |  | 2 to 4 µg/mL (≈ 2.68 to 5.36 µM) | 2 to 4 µg/mL (≈ 2.68 to 5.36 µM) |  | 8 to 16 µg/mL (≈ 10.7 to 21.5 µM) | 8 to 16 µg/mL (≈ 10.7 to 21.5 µM) | 2 to 4 µg/mL (≈ 2.68 to 5.36 µM) | > 64 µg/mL | 1 to 2 µg/mL (≈ 1.34 to 2.68 µM) | 4 to 8 µg/mL (≈ 5.36 to 10.7 µM) | > 64 µg/mL
